# Peptide text beside a SMILES is read from it. * marks the point of attachment. Hexanoyl = CCCCCC(=O)*
# Experiments:
# red blood cells = format: cell-based, human
# Protocol: A hemolysis assay was performed using heparinized blood for Pep19-4LF, Pep19-2.5, C6-Pep19-short, C11-Pep19-short, and C18-Pep19-short to test the toxicity against red blood cells and selectivity against bacterial cells. A 600 µM stock solution of each peptide was prepared in 0.9% NaCl. Heparinized blood was taken from three individual fasted, healthy volunteers. To purify the erythrocytes, the blood was centrifuged at 2500 rpm for 10 min and the supernatant was removed. The cell-pellet was resuspended in standard PBS. The centrifugation step was repeated for three times until the supernatant was visibly clear. A 96-well v-bottom plate (Greiner Bio-One International GmbH, Kremsmünster, Austria) was loaded as follows: row 1 (A1-H1) was preloaded with 100 µL of 600 µM peptide stock solution and row 12 (A12-H12) was preloaded with 50 µL 10% Triton X-100 (PerkinElmer, Boston, USA) and served as a positive control. […] Fifty µL of the supernatant was then transferred to a new 96-well flat-bottom plate (Greiner Bio-One International GmbH, Kremsmünster, Austria) and the absorbance was measured at a wavelength of 554 nm, using an Infinite M200 PRO microplate reader (Tecan Trading, Maennedorf).
# Hemolysis was calculated with the following equation: Hemolysis [%]= Aconjugate− Ablank/ATriton− Ablank
# [1] = system: Acinetobacter bohemicus (DSM 100419); assay: Minimal inhibitory concentration (MIC), broth microdilution; format: cell-based; parameters: key to MIC value: MIC in μg/mL (lowest concentration without visible growth); details: 30 ± 1 °C; for MIC value: Table S2, n=3, no unit given (main text uses µg/mL)
# Protocol: (§1) Minimal inhibitory concentrations (MICs) were determined against Gram-positive Enterococcus faecium vanA (UL 602570*, clinical isolate from Institute for Medical Microbiology and Hygiene, Heidelberg University Hospital, Heidelberg, Germany), Staphylococcus aureus (ATCC 25923), Rothia kristinae (DSM 20032), and Gram-negative Acinetobacter bohemicus (DSM 100419) (all obtained from the Department of Infectious Diseases, Medical Microbiology and Hygiene, Heidelberg University, Heidelberg, Germany) in a 96-well polypropylene plate (650261 Greiner Bio-One GmbH, Frickenhausen, Germany) according to European Committee on Antimicrobial Susceptibility Testing (EUCAST) and The Clinical & Laboratory Standards Institute (CLSI) guidelines. Briefly, the stock solutions of the peptide conjugates in water were adjusted to a concentration of 1.28 mg/mL. Starting with the highest concentration of 64 μg/mL in 96-well polypropylene plates, dilution series in cation-adjusted Mueller–Hinton broth (MHB II; Sigma Aldrich, Steinheim, Germany) were performed, resulting in the lowest concentration of 0.125 μg/mL. A logarithmic growing bacterial culture was adjusted to a McFarland corresponding to 1 × 10^8 cfu/mL using a McFarland counter (DensiCHEK® plus, bioMerieux, Marcy-l’Étoile, France). Finally, a bacterial suspension of 1 × 10^6 cfu/mL (further diluted in MHB II) was added to each peptide-conjugate concentration. Thus, the final bacterial concentration in each well was 5 × 10^5 cfu/mL. The bacteria were incubated at 37 ± 1 °C (for A. bohemicus: 30 ± 1 °C) overnight and the bacterial growth was analyzed after 18 to 20 h. The MIC was defined as the lowest concentration of substance without any visible growth. Vancomycin and colistin sulfate were purchased from Sigma-Aldrich Chemie GmbH, München, Germany and Carl Roth GmbH, Karlsruhe, Germany.
# [2] = system: Rothia kristinae (DSM 20032); assay: as above; format: cell-based; details: Table 3 of supplement, n=3; unit inferred; 37 ± 1 °C
# Protocol: as §1
# [3] = system: Rothia kristinae (DSM 20032); assay: Minimal bactericidal concentration (MBC); format: cell-based; details: Table 3 of supplement, n=3; unit inferred; lowest concentration killing 99.9% of the inoculum; agar 24 h, 37 ± 1 °C
# Protocol: (§2) Minimal bactericidal concentrations (MBCs) were determined by pipetting 3 µL of each broth dilution solution without visible growth onto a new agar plate. The agar plates were incubated at 37 ± 1 °C (for A. bohemicus: 30 ± 1 °C) for 24 h and were again analyzed with respect to bacterial growth. MBC is defined as the lowest concentration killing 99.9% of the inoculum.
# [4] = system: Acinetobacter bohemicus (DSM 100419); assay: Minimal bactericidal concentration (MBC); format: cell-based; details: Table S2, n=3; unit inferred; lowest concentration killing 99.9% of the inoculum; agar 24 h, 30 ± 1 °C
# Protocol: as §2
# [5] = system: Rothia kristinae (DSM 20032); assay: Time-kill studies; format: cell-based; details: for time until all bacteria killed: n=3
# Protocol: Time–kill studies were performed in accordance with CLSI guidelines. Therefore, Rothia kristinae DSM 20032 was adjusted to a concentration of 1 x 10^8 cfu/mL and further diluted to 1 × 10^6 cfu/mL in cation-adjusted MHB II. According to the previous determined MIC values of Pep19-4LF, C11-Pep19-4LF, and bacitracin (positive control) (Sigma Aldrich Chemie GmbH, München, Germany), samples were taken for 4 × MIC, 2 × MIC, 1 × MIC, and 0.5 × MIC after 30 min, 1 h, 2 h, 4 h, and 8 h. These samples were diluted in sterile saline and 10 µL of each sample was loaded onto agar plates. A bacterial suspension of 1 × 10^6 cfu/mL served as a growth control. Incubation occurred at 37 ± 1 °C and all counted colonies were recalculated to the colony number in the original inoculum.
# [6] = format: physicochemical
# Source text: The high MIC value of Pep19-short indicates the importance of a hydrophobic moiety for this synthetic antimicrobial peptide. […] If the length of the fatty acid is too short, the interaction between the peptide conjugate and components of the bacterial cell membrane might be unfavorable, thus leading to loss of efficiency. Fatty acids of medium chain length enable a stable plateau of low MIC values, indicating a more efficient interaction between the peptide conjugate and bacterial cells. […] A detailed interaction between Pep19 peptides and membrane-bound toxins was previously described by Correa et al.. […] A hypothesized mechanism for this interaction represents the reorganization of the bacterial membrane leading in an inability to maintain the osmotic pressure. Here, the positively-charged amino acids of the peptide conjugate might interact with the negatively-charged compounds of the bacterial cell wall and the hydrophobic part interacts with hydrophobic lipids of the bacterial membrane. Several mechanisms for a membrane disruption by amphiphilic peptides were further described by Sato and Feix. With respect to the parent peptide Pep19-4LF, the hydrophobic moiety was located at the C-terminus. As the synthesis leads to peptides that are linked to the resin via their C-terminus, the fatty acids were linked to the free N-terminus of the peptide. […]
# [7] = rat, in vivo, iv
# Protocol: For this purpose, the tyrosine residues of the peptides were radiolabeled with ^125I (Hartmann Analytic GmbH, Braunschweig, Germany) using the chloramine-T method [28]. Free ^125I was separated by preparative HPLC as previously described by Schieck et al. [22]. Approximately 2 to 4 MBq of the radiolabeled peptides was injected intravenously into the tail vein and images were recorded immediately post injection and after 1 h, 2 h, 3 h, 5 h, and 24 h. Scintigraphical images were obtained by using a γ-camera (Gamma Imager, Biospace Lab, Paris, France).
# [8] = system: Enterococcus faecium (UL602570*, clinical isolate, vanA-resistant); assay: Minimal inhibitory concentration (MIC), broth microdilution; format: cell-based; details: cation-adjusted MHB II, 5 × 10^5 cfu/mL, 37 ± 1 °C, read after 18 to 20 h, n = 3
# Protocol: as §1
# [9] = system: Staphylococcus aureus (ATCC 25923); assay: as above; format: cell-based; details: cation-adjusted MHB II, 5 × 10^5 cfu/mL, 37 ± 1 °C, read after 18 to 20 h, n = 3
# Protocol: as §1
Molecule,hemolytic activity (red blood cells),MIC value [1],MIC value [2],MBC value [3],MBC value [4],"change in number of cfu/mL ([5]; 0.5 × MIC, 0 to 8 h, n = 3)",time until all bacteria killed ([5]; 1 × MIC),time until all bacteria killed ([5]; 2 × MIC),"time until all bacteria killed / no detectable cfu ([5]; 4 × MIC, 1 × 10^6 cfu/mL in MHB II, 37 °C, n = 3)","mode of action ([5]; 4 × MIC, n = 3)",solubility in water [6],"MIC ([1]; broth microdilution, cation-adjusted MHB II, 5 × 10^5 cfu/mL, read after 18 to 20 h, n = 3)",speed of elimination compared among the peptides [7],MIC [8],MIC [9]
CCCCCC(=O)NCC(=O)N[C@@H](CCCCN)C(=O)N[C@@H](CCCCN)C(=O)N[C@@H](Cc1ccc(O)cc1)C(=O)N[C@@H](CCCNC(=N)N)C(=O)N[C@@H](CCCNC(=N)N)C(=O)N[C@@H](Cc1ccccc1)C(=O)N[C@@H](CCCNC(=N)N)C(=O)N[C@@H](Cc1c[nH]c2ccccc12)C(=O)N[C@@H](CCCCN)C(=O)N[C@@H](Cc1ccccc1)C(=O)N[C@@H](CCCCN)C(=O)NCC(=O)N[C@@H](CCCCN)C(N)=O [C6-Pep19-short] (Hexanoyl-GKKYRRFRWKFKGK-NH2),no hemolytic activity,16,16 µg/mL,32 µg/mL,16 µg/mL,,,,,,,,,,
"GKKYRRFRWKFKGKLFLFG-NH2 [Pep19-4LF, synthetic antimicrobial parent peptide, …-NH2]",,8,8 µg/mL,8 µg/mL,8 µg/mL,only a small decrease in the number of cfu/mL,> 8 h,1 h,30 min,bactericidal mode of action,very low solubility in water,8 µg/mL,slowest elimination,8 µg/mL,32 µg/mL

# Source: PMC7760514, “Fatty Acid Conjugation Leads to Length-Dependent Antimicrobial Activity of a Synthetic Antibacterial Peptide (Pep19-4LF)” (Antibiotics, 2020)
